Measurements published in the OPERA property sets (Mansouri et al. 2018).

Conditions: for log10 BCF / log10 biotransformation half-life (days): fish

Row | Compound | boiling point [°C] | melting point [°C] | further results
1 | CCN1C(=O)c2ccccc2C1=O | 286 | 79 | –
2 | Nc1c(Cl)c(Cl)c(Cl)c(Cl)c1Cl | – | 235 | log10 Koc (L/kg): 4.62; ready biodegradability: not readily biodegradable; log10 BCF: 2.71
3 | CC(=O)C=C(C)C | 130 | -59 | log10 vapour pressure (mmHg): 0.914; ready biodegradability: readily biodegradable
4 | CN=NC | 1.5 | -78 | –
5 | CC(=O)c1c(C)cc(C)cc1C | 241 | – | –
6 | N#CCC(N)=C(C#N)C#N | – | 172 | –
7 | CC(=O)CC(=O)Nc1ccc(-c2ccc(NC(=O)CC(C)=O)c(C)c2)cc1C | – | 212 | ready biodegradability: not readily biodegradable; log10 BCF: 0.2; log10 biotransformation half-life (days): -1.5
8 | O=C(O)c1cccc([N+](=O)[O-])c1Cl | – | 184 | –
9 | FC(F)(F)C(F)(F)C(F)(F)C(F)(F)C(F)(F)C(F)(F)C(F)(F)C(F)(F)C(F)(F)F | 123 | -16 | –
10 | C=C(C)c1ccc(C(=C)C)cc1 | – | 63.5 | –
11 | NC(=O)c1ccccc1F | – | 118 | –
12 | C=C1C(=O)O[C@@H]2C[C@@]3(C)CCC[C@H](C)C3=C[C@H]12 | 275 | 76 | –
13 | Cc1ccc(S(=O)(=O)Cl)cc1 | – | 71 | ready biodegradability: readily biodegradable
14 | CCCC(=O)OCc1ccccc1 | 239 | – | –
15 | Nc1ccc2c(c1)CCC2 | 248 | 37.5 | –
16 | CCC(CO)(CO)[N+](=O)[O-] | – | 57.5 | –
17 | CCC(O)CO (stereo unspecified) | 194 | – | log10 vapour pressure (mmHg): -1.3; ready biodegradability: readily biodegradable
18 | CCN(CC)C(=O)Cl | 186 | -32 | –
19 | CCn1c2ccccc2c2cc(N)ccc21 | – | 99 | –
20 | C[N+]12CCC(CC1)C(OC(=O)C(O)(c1ccccc1)c1ccccc1)C2.[Br-] (stereo unspecified) | – | 240 | –
21 | CCc1cc(C)cc(CC)c1 | 205 | -74.1 | log10 vapour pressure (mmHg): 0.0017

Row | Compound | boiling point [°C] | melting point [°C] | further results
22 | CCOC(OCC)C(Cl)Cl | 184 | – | –
23 | Clc1cc(Cl)c(-c2cc(Cl)c(Cl)c(Cl)c2Cl)cc1Cl | – | – | log10 Henry constant (atm·m³/mol): -5; log10 Koa: 9.88; log10 vapour pressure (mmHg): -6.01; logP: 7.72
24 | NC(=S)Nc1ccccc1Cl | – | 146 | –
25 | CC1(C)[C@H](C(=O)O[C@H](C#N)c2cccc(Oc3ccccc3)c2)[C@@H]1C(Br)C(Br)(Br)Br (stereo partly specified) | – | 143 | log10 Koc (L/kg): 5; log10 vapour pressure (mmHg): -10.4
26 | CCOc1nc(NC)nc(NC(=O)NS(=O)(=O)c2ccccc2C(=O)OC)n1 | – | 194 | log10 Koc (L/kg): 1.93
27 | OC[C@H]1O[C@@](CO)(O[C@H]2O[C@H](CO)[C@@H](O)[C@H](O)[C@H]2O)[C@@H](O[C@H]2O[C@H](CO)[C@@H](O)[C@H](O)[C@H]2O)[C@@H]1O | – | 153 | –
28 | OCCN1CCNCC1 | 246 | – | –
29 | CCc1cnc(C2=NC(C)(C(C)C)C(=O)N2)c(C(=O)O)c1 (stereo unspecified) | – | 171 | log10 Koc (L/kg): 0.85
30 | CN(C)c1nc(=O)n(C2CCCCC2)c(=O)n1C | – | 116 | log10 Koc (L/kg): 1.73; log10 vapour pressure (mmHg): -6.65
31 | CC(O)CN(CC(C)O)CC(C)O (stereo unspecified) | 305 | 45 | ready biodegradability: not readily biodegradable; log10 BCF: -0.24
32 | CC(=O)Oc1ccc(C)cc1 | 212 | – | –
33 | C[Si](O)(c1ccccc1)c1ccccc1 | – | 167 | –
34 | CCCCCCCCCCCCCCCCCC(=O)OCCCC | 343 | 27 | –
35 | N#Cc1ccc(Br)cc1 | 236 | – | –
36 | C[N+](C)(C)CCCl.[Cl-] | – | – | log10 vapour pressure (mmHg): -7.12
37 | Nc1ccc2c(n1)[nH]c1ccccc12 | – | 202 | –
38 | Clc1ccc(/N=N/c2ccccc2)cc1 | – | 88 | log10 vapour pressure (mmHg): -5.7
39 | CCCOCCC | 90 | -122 | log10 Henry constant (atm·m³/mol): -2.66; log10 Koa: 2.97; log10 vapour pressure (mmHg): 1.8
40 | O=C(c1ccccc1)C1CC1 | – | -7.9 | –
41 | O=C1/C(=C2\Nc3c(Br)cc(Br)cc3C2=O)Nc2c(Br)cc(Br)cc21 | – | – | log10 vapour pressure (mmHg): -11.1
42 | CCCCCCCCCCCCCCCCCCCCCC(=O)OC | – | 54 | –

Row | Compound | boiling point [°C] | melting point [°C] | further results
43 | CC(=O)C=Cc1ccccc1 | 262 | 41.8 | log10 vapour pressure (mmHg): -1.91; ready biodegradability: not readily biodegradable
44 | CCCCCCCC(=O)OCC(COC(=O)CCCCCCC)OC(=O)CCCCCCC | – | 10 | –
45 | Clc1cccc(-c2cc(Cl)cc(Cl)c2)c1 | – | – | log10 Henry constant (atm·m³/mol): -3.77
46 | C=C(C)C(=O)OC1CCCCC1 | – | – | ready biodegradability: readily biodegradable
47 | Cc1cc(O)c2c(c1)C(=O)c1cccc(O)c1C2=O | – | 196 | –
48 | O=C(O)c1ccccc1C(c1ccc(O)cc1)c1ccc(O)cc1 | – | 230 | –
49 | O=C(O)c1cc(I)c(O)c(I)c1 | – | 237 | –
50 | CC(O)CCl (stereo unspecified) | 127 | – | log10 vapour pressure (mmHg): 0.69
51 | CCCCCCCCCCCCCCCCCC#N | 362 | 41 | –
52 | CC1(C)CON(Cc2ccccc2Cl)C1=O | 275 | 25 | log10 Koc (L/kg): 2.44; log10 vapour pressure (mmHg): -3.84
53 | CCSCCSCC | 217 | 180 | –
54 | CNC1(c2ccccc2Cl)CCCCC1=O (stereo unspecified) | – | 92.5 | –
55 | O=C(O)CCS | – | 18 | log10 vapour pressure (mmHg): -1.3
56 | CCC1CCNCC1 | 154 | – | –
57 | O=[N+]([O-])c1ccc2ccccc2c1 | 314 | 79 | –
58 | CC1(C)CCCC(=O)C1 | 180 | – | –
59 | COC(C)=O | 56.8 | -98 | log10 Henry constant (atm·m³/mol): -3.94; log10 Koa: 2.31; log10 vapour pressure (mmHg): 2.33; ready biodegradability: readily biodegradable
60 | CC(=O)OCC(COC(C)=O)OC(C)=O | 259 | – | log10 vapour pressure (mmHg): -2.61; ready biodegradability: readily biodegradable
61 | CC(=O)CC(C)C | 116 | -84 | log10 vapour pressure (mmHg): 1.3; ready biodegradability: readily biodegradable
62 | C=C(C)c1ccc(C(C)C)cc1 | 221 | -30.6 | –
63 | CCOP(=S)(OCC)OC(Cl)C(Cl)(Cl)Cl (stereo unspecified) | – | – | log10 Koc (L/kg): 3.6; log10 vapour pressure (mmHg): -3.1

Row | Compound | boiling point [°C] | melting point [°C] | further results
64 | CCCCC(CC)COP(=O)(OCC(CC)CCCC)OCC(CC)CCCC (stereo unspecified) | – | -74 | log10 vapour pressure (mmHg): -7.08; ready biodegradability: not readily biodegradable; log10 BCF: 1.7; log10 biotransformation half-life (days): -0.29
65 | CC[Si](F)(F)CC | 61 | -78.7 | –
66 | O=C(O)c1c(Br)c(O)c(O)c(O)c1Br | – | 150 | –
67 | C1CCc2nnnn2CC1 | – | 59.5 | –
68 | CS(=O)(=O)c1ccc(C(=O)C2C(=O)CCCC2=O)c(Cl)c1 | – | 139 | log10 vapour pressure (mmHg): -7.43
69 | Oc1c(Br)cccc1Br | 255 | 56.5 | –
70 | CNc1ccccc1C(=O)OC | 255 | 19 | –
71 | ClC#CCl | 33 | -66 | –
72 | O=C(O)C(Cc1cc(I)c(O)c(I)c1)c1ccccc1 (stereo unspecified) | – | 164 | –
73 | CC12CCC(C(=O)C1=O)C2(C)C (racemic) | – | 199 | –
74 | NC(=O)c1cccc([N+](=O)[O-])c1 | 312 | 143 | log10 Koc (L/kg): 1.95
75 | Cc1c(N)cccc1[N+](=O)[O-] | 305 | 92 | –
76 | CCCCOCCOC(=O)CCCOc1ccc(Cl)cc1Cl | – | – | log10 Koc (L/kg): 2.7
77 | Cc1cc(=O)[nH]o1 | – | 86.5 | log10 vapour pressure (mmHg): -2.86
78 | CCCCCCCCCCCCN1CC(C(=O)O)CC1=O (stereo unspecified) | – | 39 | –
79 | Clc1cc(-c2c(Cl)c(Cl)c(Cl)c(Cl)c2Cl)cc(Cl)c1Cl | – | – | log10 biotransformation half-life (days): 2.65
80 | COc1ccc(COC(C)=O)cc1 | 270 | 84 | –
81 | c1ccc(CCc2ccccn2)cc1 | 289 | -3 | –
82 | Cc1cnc(C)c(C)c1 | 184 | – | –
83 | C1C2CC3CC1CC(C2)C3 | – | 205 | log10 biodegradation half-life (days): 3
84 | CCCCC1C(=O)N(c2ccccc2)N(c2ccc(O)cc2)C1=O (stereo unspecified) | – | 96 | –
